Data on three compounds can be found in patent US20230309555A1, “ENVIRONMENTALLY RESPONSIVE TRANS-2-HEXENAL SUSTAINED-RELEASE AGENT, PREPARATION METHOD, AND APPLICATION” (ZHEJIANG UNIVERSITY, priority 2022, published 2023).

Data set [1] deals with Botrytis cinerea. Kind of data set: growth of Botrytis cinerea on potato dextrose agar plate medium. It counts as cell-based. To be noted: after 4 days culture at 25 °C. The procedure: Botrytis cinerea lesion with a diameter of 5 mm was inoculated on the center of a potato dextrose agar medium plate. The experiment was performed by seven groups as follows: • a. A BLANK group: nothing was added; • b. A GSH group: 1 g reductive glutathione was added to a lid of a Petri dish and the Petri dish was sealed immediately; • c. A GSH3h group: 1 g reductive glutathione was added to a lid of a Petri dish and then the Petri dish was sealed after being left open for 3 h at room temperature; • d. A Group […]: 20 μL trans-2-hexenal was added to a lid of a Petri dish and the Petri dish was sealed immediately; • e. An E-2-[…] group: 20 μL trans-2-hexenal was added to a lid of a Petri dish and the Petri dish was sealed after being left open for 3 h at room temperature; • f. […] After all groups were sealed completely, the groups were inverted and cultured at 25° C.The growth of Botrytis cinerea was checked regularly.

Data set [2] concerns Botrytis cinerea. The following applies: strawberries injected with 4 µL of 5×10^5 cfu/mL Botrytis cinerea; 6 g product at bottom of fresh-keeping box; room temperature. How it is done:
Strawberries which were harvested at the same maturity, similar in size and without any infestation with insects or pets and damage, were selected. The strawberries were surface-sterilized by immersing in 0.5% (v/v) sodium hypochlorite for 5 min, then washed with sterile water to remove residues and dried at room temperature. The strawberries were randomly divided into 2 groups, each group including 33 strawberries, and then packed into a certain volume of fresh-keeping boxes (11 strawberries per box). In group a, 4 µL of 5×10^5cfu/mL of Botrytis cinerea solution was injected into the equatorial part of the strawberry. […] The experiment was conducted at room temperature and the strawberries were observed daily for decay, and the diameter of the lesions was measured daily.

The conditions of data set [3]: 0.05 g product, sealed vial 7 d; 4, 25, 45 °C; relative humidity 0%, 30%, 50%, 70%, 85%, 100%.
Protocol: 20 mL glass vials were filled with 3 g of silica gel, 3 mL of saturated magnesium chloride solution, 3 mL of saturated potassium carbonate solution, 3 mL of saturated potassium iodide solution, 3 mL of saturated of potassium chloride solution, and 3 mL of pure water and then sealed until reaching relative humidity of 0%, 30%, 50%, 70%, 85% and 100%, respectively, and the mixed solution was balanced at 4° C. for 1 h. 0.05 g product was weighed and placed in a 2 mL glass vial, then transferred to the 20 mL glass vial and sealed for 7 d, and the release amount was measured every day.
20 mL glass vials were filled with 3 g of silica gel, 3 mL of saturated magnesium chloride solution, 3 mL of saturated potassium carbonate solution, 3 mL of saturated potassium iodide solution, 3 mL of saturated potassium chloride solution, and 3 mL of pure water until reaching relative humidity of 0%, 30%, 50%, 70%, 85% and 100%, respectively, and the mixed solution was balanced at 25° C. for 1 h. 0.05 g product was weighed in a 2 mL glass vial, then transferred to the 20 mL glass vial and sealed for 7 d, and the release amount was measured every day. […]
The mark [4] stands for this setting: Petri dish sealed after being left open for 3 h at room temperature.
[5] abbreviates: Petri dish sealed immediately after addition.

Regarding `CCC/C=C/C=O` [trans-2-hexenal], the “lesion diameter of Botrytis cinerea on plate medium” value (shortened to “lesion diameter of Botrytis cinerea”) in data set [1] (setting [4]) is “larger than that of the glutathione/trans-2-hexenal addition product group”; in data set [1] (setting [5]) it was “significantly lower lesion diameter than other groups”.

As for `CCCC(CC=O)SC[C@H](NC(=O)CC[C@H](N)C(=O)O)C(=O)NCC(=O)O` (stereo partly shown), the “difference in bacterial inhibition results between group sealed immediately and group sealed after being left open for 3 h” value in data set [1] (1 g product) is recorded as “little difference”. In addition, in data set [1] (setting [4]), the “lesion diameter of Botrytis cinerea” value is on record as “significantly smaller than that of the blank group”. Further, the “lesion diameter of Botrytis cinerea” value in data set [1] (setting [5]) is given as “significantly smaller than that of the blank group”. Besides, in data set [2], the “bacterial inhibition (incidence of fruit gray mold)” value was “better than the control group” and the “growth diameters of the lesion of fruit” value is “lower than that of the control group”. Besides, in data set [3], the “release rate of trans-2-hexenal from the products” value was “increased with the increase in relative humidity and temperature”.

Consider `N[C@@H](CCC(=O)N[C@@H](CS)C(=O)NCC(=O)O)C(=O)O` [reductive glutathione], for which the “lesion diameter of Botrytis cinerea” value in data set [1] (setting [4]) and in data set [1] (setting [5]) was “not significantly different from the blank group” in each case.
